From PubChem BioAssay AID1963873 (Molecular Pharmacology Branch, DTP, NCI, 2024)

Tested on: 276233-004-R-J1-PDC KRAS spheroids with HUVEC/MSC, viability
Assay: Anticancer human tumor 276233-004-R-J1-PDC patient-derived colon adenocarcinoma cell line growth inhibition [KRAS2]
Conditions: for IC50: curve of first compound; for viability, T/C: stronger effect = lower value
How it was run: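 KRAS-mutant tumor cells were grown as spheroids with HUVEC endothelial cells and human MSCs as stroma. Targeted agents were tested alone and with KRAS pathway inhibitors. Doses started at or near clinical Cmax, or 10 microM, descending half-log.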

[1] = second compound 0.1 µM, first compound 0.0316 µM
[2] = second compound 0.316 µM, first compound 0.0316 µM
[3] = second compound 1 µM, first compound 0.0316 µM
[4] = second compound 3.16 µM, first compound 0.0316 µM
[5] = second compound 10 µM, first compound 0.0316 µM
[6] = second compound 0.1 µM, first compound 0.1 µM
[7] = second compound 0.1 µM, first compound 0.316 µM
[8] = second compound 0.1 µM, first compound 1 µM
[9] = second compound 0.1 µM, first compound 3.16 µM
[10] = second compound 0.1 µM, first compound 10 µM
[11] = second compound 0.316 µM, first compound 0.1 µM
[12] = second compound 0.316 µM, first compound 0.316 µM
[13] = second compound 0.316 µM, first compound 1 µM
[14] = second compound 0.316 µM, first compound 3.16 µM
[15] = second compound 0.316 µM, first compound 10 µM
[16] = second compound 1 µM, first compound 0.1 µM
[17] = second compound 1 µM, first compound 0.316 µM
[18] = second compound 1 µM, first compound 1 µM
[19] = second compound 1 µM, first compound 3.16 µM
[20] = second compound 1 µM, first compound 10 µM
[21] = second compound 3.16 µM, first compound 0.1 µM
[22] = second compound 3.16 µM, first compound 0.316 µM
[23] = second compound 3.16 µM, first compound 1 µM
[24] = second compound 3.16 µM, first compound 3.16 µM
[25] = second compound 3.16 µM, first compound 10 µM
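Also: cells exposed to agents for seven days before viability read.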
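For viability, T/C in this document: 100% = DMSO vehicle control wells and lower values mean fewer viable cells.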

CC(=O)Nc1cccc(-n2c(=O)n(C3CC3)c(=O)c3c(Nc4ccc(I)cc4F)n(C)c(=O)c(C)c32)c1 + C=CC(=O)N1CCN(c2nc(=O)n(-c3c(C)ccnc3C(C)C)c3nc(-c4c(O)cccc4F)c(F)cc23)C(C)C1
IC50 (second compound 0.1 µM): 6.44 nM
IC50 (second compound 0.316 µM): 9.46 nM
IC50 (second compound 1 µM): 9.28 nM
IC50 (second compound 3.16 µM): 6.41 nM
IC50 (second compound 10 µM): 2.45 nM
viability, T/C (second compound 0.1 µM, first compound 0.0001 µM): 89.9%
viability, T/C (second compound 0.1 µM, first compound 0.000316 µM): 97.5%
viability, T/C (second compound 0.1 µM, first compound 0.001 µM): 85.7%
viability, T/C (second compound 0.1 µM, first compound 0.00316 µM): 58.9%
viability, T/C (second compound 0.1 µM, first compound 0.01 µM): 45.4%
viability, T/C [1]: 21.3%
viability, T/C (second compound 0.316 µM, first compound 0.0001 µM): 87.1%
viability, T/C (second compound 0.316 µM, first compound 0.000316 µM): 84.9%
viability, T/C (second compound 0.316 µM, first compound 0.001 µM): 76.9%
viability, T/C (second compound 0.316 µM, first compound 0.00316 µM): 74%
viability, T/C (second compound 0.316 µM, first compound 0.01 µM): 47.9%
viability, T/C [2]: 18.6%
viability, T/C (second compound 1 µM, first compound 0.0001 µM): 102%
viability, T/C (second compound 1 µM, first compound 0.000316 µM): 85.5%
viability, T/C (second compound 1 µM, first compound 0.001 µM): 80%
viability, T/C (second compound 1 µM, first compound 0.00316 µM): 71.9%
viability, T/C (second compound 1 µM, first compound 0.01 µM): 49.5%
viability, T/C [3]: 19.4%
viability, T/C (second compound 3.16 µM, first compound 0.0001 µM): 75.2%
viability, T/C (second compound 3.16 µM, first compound 0.000316 µM): 96.3%
viability, T/C (second compound 3.16 µM, first compound 0.001 µM): 65.8%
viability, T/C (second compound 3.16 µM, first compound 0.00316 µM): 59.5%
viability, T/C (second compound 3.16 µM, first compound 0.01 µM): 45.9%
viability, T/C [4]: 24.2%
viability, T/C (second compound 10 µM, first compound 0.0001 µM): 74.2%
viability, T/C (second compound 10 µM, first compound 0.000316 µM): 73%
viability, T/C (second compound 10 µM, first compound 0.001 µM): 57.6%
viability, T/C (second compound 10 µM, first compound 0.00316 µM): 45.4%
viability, T/C (second compound 10 µM, first compound 0.01 µM): 36.8%
viability, T/C [5]: 21.3%

CC(C)NCC(C(=O)N1CCN(c2ncnc3c2C(C)CC3O)CC1)c1ccc(Cl)cc1 (stereo not given) + C=CC(=O)N1CCN(c2nc(=O)n(-c3c(C)ccnc3C(C)C)c3nc(-c4c(O)cccc4F)c(F)cc23)C(C)C1
IC50 (second compound 0.1 µM): > 10000 nM
IC50 (second compound 0.316 µM): > 10000 nM
IC50 (second compound 1 µM): > 10000 nM
IC50 (second compound 3.16 µM): 7170 nM
IC50 (second compound 10 µM): > 10000 nM
viability, T/C [1]: 109%
viability, T/C [6]: 128%
viability, T/C [7]: 91.3%
viability, T/C [8]: 74.2%
viability, T/C [9]: 73.6%
viability, T/C [10]: 70.5%
viability, T/C [2]: 89%
viability, T/C [11]: 71.7%
viability, T/C [12]: 101%
viability, T/C [13]: 80%
viability, T/C [14]: 77.3%
viability, T/C [15]: 63.1%
viability, T/C [3]: 106%
viability, T/C [16]: 102%
viability, T/C [17]: 93.8%
viability, T/C [18]: 76.9%
viability, T/C [19]: 81.1%
viability, T/C [20]: 60.7%
viability, T/C [4]: 125%
viability, T/C [21]: 103%
viability, T/C [22]: 67.4%
viability, T/C [23]: 66.5%
viability, T/C [24]: 59.3%
viability, T/C [25]: 57.5%
viability, T/C [5]: 75%
viability, T/C (second compound 10 µM, first compound 0.1 µM): 79.1%
viability, T/C (second compound 10 µM, first compound 0.316 µM): 58.9%
viability, T/C (second compound 10 µM, first compound 1 µM): 66.8%
viability, T/C (second compound 10 µM, first compound 3.16 µM): 85.5%
viability, T/C (second compound 10 µM, first compound 10 µM): 64.4%

O=C(c1cc(Cc2n[nH]c(=O)c3ccccc23)ccc1F)N1CCN(C(=O)C2CC2)CC1 + C=CC(=O)N1CCN(c2nc(OCC3CCCN3C)nc3c2CCN(c2cccc4cccc(C)c24)C3)CC1CC#N
IC50 (second compound 0.0316 µM): > 10000 nM
IC50 (second compound 0.1 µM): > 10000 nM
IC50 (second compound 0.316 µM): > 10000 nM
IC50 (second compound 1 µM): > 10000 nM
IC50 (second compound 3.16 µM): < 31.6 nM
viability, T/C (second compound 0.0316 µM, first compound 0.0316 µM): 114%
viability, T/C (second compound 0.0316 µM, first compound 0.1 µM): 109%
viability, T/C (second compound 0.0316 µM, first compound 0.316 µM): 101%
viability, T/C (second compound 0.0316 µM, first compound 1 µM): 93.9%
viability, T/C (second compound 0.0316 µM, first compound 3.16 µM): 91.2%
viability, T/C (second compound 0.0316 µM, first compound 10 µM): 82.5%
viability, T/C [1]: 98.1%
viability, T/C [6]: 109%
viability, T/C [7]: 100%
viability, T/C [8]: 87%
viability, T/C [9]: 87.1%
viability, T/C [10]: 83.1%
viability, T/C [2]: 110%
viability, T/C [11]: 94.8%
viability, T/C [12]: 93.4%
viability, T/C [13]: 68.7%
viability, T/C [14]: 83.4%
viability, T/C [15]: 76.3%
viability, T/C [3]: 81.5%
viability, T/C [16]: 89.8%
viability, T/C [17]: 110%
viability, T/C [18]: 87.6%
viability, T/C [19]: 82.8%
viability, T/C [20]: 85%
viability, T/C [4]: 55.4%
viability, T/C [21]: 37.9%
viability, T/C [22]: 57.2%
viability, T/C [23]: 43.9%
viability, T/C [24]: 44.9%
viability, T/C [25]: 37.1%
